Source: ChEMBL document CHEMBL4765227, “Hit to lead optimization of a series of N-[4-(1,3-benzothiazol-2-yl)phenyl]acetamides as monoacylglycerol lipase inhibitors with potential anticancer activity” (Eur J Med Chem, 2016)

Columns and labels:
Assay type in all cases: functional
HL-60(TB) = test: Growth inhibition of human HL-60(TB) cells incubated for 48 hrs by sulforhodamine B assay
MOLT-4 = test: Growth inhibition of human MOLT-4 cells incubated for 48 hrs by sulforhodamine B assay
RPMI-8226 = test: Growth inhibition of human RPMI-8226 cells incubated for 48 hrs by sulforhodamine B assay
SR = test: Growth inhibition of human SR cells incubated for 48 hrs by sulforhodamine B assay
A549 = test: Growth inhibition of human A549/ATCC cells incubated for 48 hrs by sulforhodamine B assay
HOP-62 = test: Growth inhibition of human HOP-62 cells incubated for 48 hrs by sulforhodamine B assay
NCI-H322M = test: Growth inhibition of human NCI-H322M cells incubated for 48 hrs by sulforhodamine B assay
NCI-H460 = test: Growth inhibition of human NCI-H460 cells incubated for 48 hrs by sulforhodamine B assay
HCC 2998 = test: Growth inhibition of human HCC 2998 cells incubated for 48 hrs by sulforhodamine B assay
HCT-116 = test: Growth inhibition of human HCT-116 cells incubated for 48 hrs by sulforhodamine B assay
HT-29 = test: Growth inhibition of human HT-29 cells incubated for 48 hrs by sulforhodamine B assay
KM12 = test: Growth inhibition of human KM12 cells incubated for 48 hrs by sulforhodamine B assay
SW-620 = test: Growth inhibition of human SW-620 cells incubated for 48 hrs by sulforhodamine B assay
SF-268 = test: Growth inhibition of human SF-268 cells incubated for 48 hrs by sulforhodamine B assay
SNB-75 = test: Growth inhibition of human SNB-75 cells incubated for 48 hrs by sulforhodamine B assay
U-251 = test: Growth inhibition of human U-251 cells incubated for 48 hrs by sulforhodamine B assay
LOX IMVI = test: Growth inhibition of human LOX IMVI cells incubated for 48 hrs by sulforhodamine B assay
M14 = test: Growth inhibition of human M14 cells incubated for 48 hrs by sulforhodamine B assay
SK-MEL-28 = test: Growth inhibition of human SK-MEL-28 cells incubated for 48 hrs by sulforhodamine B assay
SK-MEL-5 = test: Growth inhibition of human SK-MEL-5 cells incubated for 48 hrs by sulforhodamine B assay
UACC-257 = test: Growth inhibition of human UACC-257 cells incubated for 48 hrs by sulforhodamine B assay
OVCAR-5 = test: Growth inhibition of human OVCAR-5 cells incubated for 48 hrs by sulforhodamine B assay
NCI/ADR-RES = test: Growth inhibition of human NCI/ADR-RES cells incubated for 48 hrs by sulforhodamine B assay
SK-OV-3 = test: Growth inhibition of human SK-OV-3 cells incubated for 48 hrs by sulforhodamine B assay
786-0 = test: Growth inhibition of human 786-0 cells incubated for 48 hrs by sulforhodamine B assay
ACHN = test: Growth inhibition of human ACHN cells incubated for 48 hrs by sulforhodamine B assay
RXF 393 = test: Growth inhibition of human RXF 393 cells incubated for 48 hrs by sulforhodamine B assay
SN12C = test: Growth inhibition of human SN12C cells incubated for 48 hrs by sulforhodamine B assay
TK-10 = test: Growth inhibition of human TK-10 cells incubated for 48 hrs by sulforhodamine B assay
UO-31 = test: Growth inhibition of human UO-31 cells incubated for 48 hrs by sulforhodamine B assay
DU-145 = test: Growth inhibition of human DU-145 cells incubated for 48 hrs by sulforhodamine B assay
MDA-MB-231 = test: Growth inhibition of human MDA-MB-231 cells incubated for 48 hrs by sulforhodamine B assay
BT-549 = test: Growth inhibition of human BT-549 cells incubated for 48 hrs by sulforhodamine B assay
T47D = test: Growth inhibition of human T47D cells incubated for 48 hrs by sulforhodamine B assay
MDA-MB-468 = test: Growth inhibition of human MDA-MB-468 cells incubated for 48 hrs by sulforhodamine B assay
[1] = read-out: LC50 (the source's name)

With `O=C(CNc1c(Cl)cccc1Cl)Nc1ccc(-c2nc3ccccc3s2)cc1` the GI50 (HL-60(TB)) was 2.43 µM, the TGI (HL-60(TB)) was 8.38 µM and the CC50 (HL-60(TB); [1]) was over 100 µM. The GI50 (MOLT-4) was 1.05 µM, the LC50 (MOLT-4) was over 100 µM and the TGI (MOLT-4) was 7.43 µM. It also gave a GI50 (RPMI-8226) of 2.07 µM, an LC50 (RPMI-8226) of over 100 µM and a TGI (RPMI-8226) of 5.21 µM. The GI50 (SR) was 1.05 µM, the LC50 (SR) was over 100 µM and the TGI (SR) was 5.33 µM. For the same compound, the GI50 (A549) was 3.65 µM, the TGI (A549) was 16.9 µM and the CC50 (A549; [1]) was over 100 µM. For the same compound, the GI50 (HOP-62) was 3.31 µM, the TGI (HOP-62) was 11.8 µM and the CC50 (HOP-62; [1]) was 77.8 µM. The GI50 (NCI-H322M) was 1.8 µM, the LC50 (concentration killing 50% of cells) (NCI-H322M) was 7.07 µM and the TGI (NCI-H322M) was 3.57 µM. For the same compound, the GI50 (NCI-H460) was 3.36 µM, the TGI (NCI-H460) was 12.4 µM and the CC50 (NCI-H460; [1]) was 43 µM. The GI50 (HCC 2998) was 1.89 µM, the TGI (HCC 2998) was 3.56 µM and the CC50 (HCC 2998; [1]) was 6.68 µM. For the same compound, the GI50 (HCT-116) was 2.14 µM, the TGI (HCT-116) was 6.14 µM and the CC50 (HCT-116; [1]) was 29 µM. For the same compound, the GI50 (HT-29) was 2.01 µM, the LC50 (HT-29) was 8.66 µM and the TGI (HT-29) was 4.17 µM. The GI50 (KM12) was 2.47 µM, the LC50 (concentration killing 50% of cells) (KM12) was 22.3 µM and the TGI (KM12) was 6.17 µM. The GI50 (SW-620) was 2.01 µM, the LC50 (concentration killing 50% of cells) (SW-620) was 9.85 µM and the TGI (SW-620) was 4.45 µM. For the same compound, the GI50 (SF-268) was 1.99 µM, the LC50 (SF-268) was 9.52 µM and the TGI (SF-268) was 4.35 µM. For the same compound, the GI50 (SNB-75) was 2.97 µM, the LC50 (concentration killing 50% of cells) (SNB-75) was 39.2 µM and the TGI (SNB-75) was 15.4 µM. It also gave a GI50 (U-251) of 2.02 µM, an LC50 (lethal concentration 50) (U-251) of 9.45 µM and a TGI (U-251) of 4.37 µM. It also gave a GI50 (LOX IMVI) of 1.19 µM, an LC50 (LOX IMVI) of 6.03 µM and a TGI (LOX IMVI) of 2.68 µM. For the same compound, the GI50 (M14) was 2.2 µM, the TGI (M14) was 6.55 µM and the CC50 (M14; [1]) was 60.1 µM. For the same compound, the GI50 (SK-MEL-28) was 1.8 µM, the LC50 (SK-MEL-28) was 7.47 µM and the TGI (SK-MEL-28) was 3.67 µM. It also gave a GI50 (SK-MEL-5) of 1.43 µM, an LC50 (50% lethal concentration) (SK-MEL-5) of 5.88 µM and a TGI (SK-MEL-5) of 2.9 µM. The GI50 (UACC-257) was 3.61 µM, the LC50 (UACC-257) was 63.1 µM and the TGI (UACC-257) was 11.9 µM. For the same compound, the GI50 (OVCAR-5) was 1.92 µM, the LC50 (concentration killing 50% of cells) (OVCAR-5) was 9.53 µM and the TGI (OVCAR-5) was 4.28 µM. For the same compound, the GI50 (NCI/ADR-RES) was 3.06 µM, the LC50 (NCI/ADR-RES) was over 100 µM and the TGI (NCI/ADR-RES) was 8.06 µM. It also gave a GI50 (SK-OV-3) of 5.84 µM, an LC50 (concentration killing 50% of cells) (SK-OV-3) of over 100 µM and a TGI (SK-OV-3) of 50.9 µM. The GI50 (786-0) was 1.76 µM, the LC50 (50% lethal concentration) (786-0) was 8.34 µM and the TGI (786-0) was 3.83 µM. For the same compound, the GI50 (ACHN) was 1.82 µM, the LC50 (ACHN) was 6.63 µM and the TGI (ACHN) was 3.47 µM. For the same compound, the GI50 (RXF 393) was 1.63 µM, the LC50 (concentration killing 50% of cells) (RXF 393) was 7.27 µM and the TGI (RXF 393) was 3.44 µM. For the same compound, the GI50 (SN12C) was 2.49 µM, the LC50 (SN12C) was 86.1 µM and the TGI (SN12C) was 8.08 µM. The GI50 (TK-10) was 2.15 µM, the LC50 (TK-10) was 18.3 µM and the TGI (TK-10) was 5.41 µM. For the same compound, the GI50 (UO-31) was 1.5 µM, the LC50 (concentration killing 50% of cells) (UO-31) was 8.5 µM and the TGI (UO-31) was 3.57 µM. The GI50 (DU-145) was 3.33 µM, the LC50 (concentration killing 50% of cells) (DU-145) was 32.2 µM and the TGI (DU-145) was 10.4 µM. It also gave a GI50 (MDA-MB-231) of 2.73 µM, an LC50 (concentration causing 50% cell kill) (MDA-MB-231) of over 100 µM and a TGI (MDA-MB-231) of 7.35 µM. It also gave a GI50 (BT-549) of 1.7 µM, an LC50 (concentration killing 50% of cells) (BT-549) of 44.4 µM and a TGI (BT-549) of 5.39 µM. The GI50 (T47D) was 1.86 µM, the LC50 (concentration killing 50% of cells) (T47D) was over 100 µM and the TGI (T47D) was 5.44 µM. It also gave a GI50 (MDA-MB-468) of 0.0251 µM, a TGI (MDA-MB-468) of 0.137 µM and a CC50 (MDA-MB-468; [1]) of 4.33 µM.
